Measured values taken from patent US20130274127A1, “GENE EXPRESSION MARKERS FOR PREDICTION OF RESPONSE TO PHOSPHOINOSITIDE 3-KINASE INHIBITORS” (GENOMIC HEALTH, INC., priority 2012, published 2013).

Tests used:
Assay in all cases: NCI-60 in vitro drug sensitivity testing (SRB)
Assay type in all cases: cell-based
NCI-H23 = conditions: Homo sapiens, NCI-H23, read-out: GDC-0941 GI50
Text: (§1) Cell lines used in this study were obtained from the National Cancer Institute Developmental Therapeutics program (NCI DTP) and were maintained in RPMI 1640 media (Invitrogen, Grand Island, N.Y.) containing 10% Fetal Bovine Serum (ATCC, Manassas, Va.). Cell lines were used within six months of receipt from the NCI DTP, abrogating the need for reauthentication.
(§2) 14, 2010 and Aug. 9, 2010.

SF-295 = conditions: Homo sapiens, SF-295, read-out: GDC-0941 GI50
Text: as §1, §2

SK-OV-3 = conditions: Homo sapiens, SK-OV-3, read-out: GDC-0941 GI50
Text: as §1, §2

SK-MEL-28 = conditions: Homo sapiens, SK-MEL-28, read-out: GDC-0941 GI50
Text: as §1, §2

DU-145 = conditions: Homo sapiens, DU-145, read-out: GDC-0941 GI50
Text: as §1, §2

MOLT-4 = conditions: Homo sapiens, MOLT-4, read-out: GDC-0941 GI50
Text: as §1, §2

ACHN = conditions: Homo sapiens, read-out: GDC-0941 GI50
Text: as §1, §2

NCI-H322M = conditions: Homo sapiens, read-out: GDC-0941 GI50
Text: as §1, §2

NCI-H522 = conditions: Homo sapiens, NCI-H522, read-out: GDC-0941 GI50
Text: as §1, §2

COLO 205 = conditions: Homo sapiens, COLO 205, read-out: GDC-0941 GI50
Text: as §1, §2

UO-31 = conditions: Homo sapiens, UO-31, read-out: GDC-0941 GI50
Text: as §1, §2

M14 = conditions: Homo sapiens, M14, read-out: GDC-0941 GI50
Text: as §1, §2

LOX IMVI = conditions: Homo sapiens, read-out: GDC-0941 GI50
Text: as §1, §2

786-0 = conditions: Homo sapiens, 786-0, read-out: GDC-0941 GI50
Text: as §1, §2

CAKI-1 = conditions: Homo sapiens, CAKI-1, read-out: GDC-0941 GI50
Text: as §1, §2

HCT-116 = conditions: Homo sapiens, HCT-116, read-out: GDC-0941 GI50
Text: as §1, §2

NCI-H226 = conditions: Homo sapiens, NCI-H226, read-out: GDC-0941 GI50
Text: as §1, §2

OVCAR-5 = conditions: Homo sapiens, OVCAR-5, read-out: GDC-0941 GI50
Text: as §1, §2

HL-60(TB) = conditions: Homo sapiens, read-out: GDC-0941 GI50
Text: as §1, §2

SNB-19 = conditions: Homo sapiens, SNB-19, read-out: GDC-0941 GI50
Text: as §1, §2

OVCAR-8 = conditions: Homo sapiens, OVCAR-8, read-out: GDC-0941 GI50
Text: as §1, §2

CCRF-CEM = conditions: Homo sapiens, read-out: GDC-0941 GI50
Text: as §1, §2

HOP-62 = conditions: Homo sapiens, HOP-62, read-out: GDC-0941 GI50
Text: as §1, §2

OVCAR-3 = conditions: Homo sapiens, OVCAR-3, read-out: GDC-0941 GI50
Text: as §1, §2

A549/ATCC = conditions: Homo sapiens, read-out: GDC-0941 GI50
Text: as §1, §2

K-562 = conditions: Homo sapiens, K562, read-out: GDC-0941 GI50
Text: as §1, §2

HT29 = conditions: Homo sapiens, HT-29, read-out: GDC-0941 GI50
Text: as §1, §2

U251 = conditions: Homo sapiens, U-251, read-out: GDC-0941 GI50
Text: as §1, §2

KM12 = conditions: Homo sapiens, KM12, read-out: GDC-0941 GI50
Text: as §1, §2

MCF7 = conditions: Homo sapiens, MCF7, read-out: GDC-0941 GI50
Text: as §1

MDA-MB-231 = conditions: Homo sapiens, MDA-MB-231, read-out: GDC-0941 GI50
Text: as §1

OVCAR-4 = conditions: Homo sapiens, OVCAR-4, read-out: GDC-0941 GI50
Text: as §1

## CS(=O)(=O)N1CCN(Cc2cc3nc(-c4cccc5[nH]ncc45)nc(N4CCOCC4)c3s2)CC1 [GDC-0941]
NCI-H23
  GI50: 2290 nM
SF-295
  GI50: 110 nM
SK-OV-3
  GI50: 83 nM
SK-MEL-28
  GI50: 617 nM
DU-145
  GI50: 355 nM
MOLT-4
  GI50: 155 nM
ACHN
  GI50: 162 nM
NCI-H322M
  GI50: 209 nM
NCI-H522
  GI50: 372 nM
COLO 205
  GI50: 269 nM
UO-31
  GI50: 78 nM
M14
  GI50: 871 nM
LOX IMVI
  GI50: 708 nM
786-0
  GI50: 295 nM
CAKI-1
  GI50: 178 nM
HCT-116
  GI50: 692 nM
NCI-H226
  GI50: 1230 nM
OVCAR-5
  GI50: 117 nM
HL-60(TB)
  GI50: 58 nM
SNB-19
  GI50: 1150 nM
OVCAR-8
  GI50: 646 nM
CCRF-CEM
  GI50: 2340 nM
HOP-62
  GI50: 363 nM
OVCAR-3
  GI50: 126 nM
A549/ATCC
  GI50: 251 nM
K-562
  GI50: 3470 nM
HT29
  GI50: 120 nM
U251
  GI50: 1050 nM
KM12
  GI50: 708 nM
MCF7
  GI50: 55 nM
MDA-MB-231
  GI50: 1480 nM
OVCAR-4
  GI50: 3800 nM
